“Also recorded” adds a separate entry of the source.

This experiment concerns E.G7 tumors. The experiment can be described thus: E.G7 (EL4-OVA) tumors in wild-type hosts treated with oxaliplatin with or without nutlin-3a. Conditions: for Ly6C+/CD103+ dendritic cells in tumors: nutlin added to oxaliplatin. Type of experiment: in vivo, mouse. The procedure:
In vivo tumor studies: The B16F10 and E.G7 (EL4-OVA) cell lines were obtained from ATCC. B16-OVA (B16F10 transfected with full-length chicken ovalbumin) clone MO4 was according to Falo et al. ((1995) Nat. Med. 1: 649-653). B16F10 cells expressing EGFP protein (B16-GFP cells) were derived using lentiviral transfection. Tumor implantation was performed as described (Sharma et al., (2007) J. Clin. Invest. 117: 2570-2582), using 1×10^5 cells for B16F10 and 1×10^6 cells for other cell lines (large inocula were used to ensure rapid tumor engraftment and immune suppression). Tumors were implanted bilaterally in each mouse as a control for reproducible implantation technique; replicate tumor diameters in a single mouse were typically within ±15%. Tumor volume was calculated from orthogonal diameters using the formula V=L×W^2×π/6. Mice received approved euthanasia when tumors reached a size of 300 mm^2 (product of orthogonal diameters); death was never used a planned endpoint in any study.
Tumor implantation was performed as described (Sharma et al., (2007) J. Clin. Invest. 117: 2570-2582). VO-OHpic was given at 10 mg/kg/day i.p., in 10% DMSO/PBS. Cyclophosphamide was given at 150 mg/kg i.p×1 dose; and oxaliplatin at 5 mg/kg i.p×1 dose. Nutlin-3a was administered daily at 10 mg/kg/day i.p. For checkpoint blockade, mice received anti-CTLA-4 plus a cocktail of antibodies against the PD-1 pathway. Vaccines and T cell adoptive transfer studies were performed as described (Sharma et al., (2015) Sci. Advances. 1: e1500845).
VO-OHpic was given at 10 mg/kg/day i.p., in 10% DMSO/PBS. Cyclophosphamide was given at 150 mg/kg i.p×1 dose. Oxaliplatin was given at 5 mg/kg i.p×1 dose. Nutlin-3a was dissolved at 2 mg/ml in 10% DMSO in buffered saline and administered daily at 10 mg/kg/day i.p. The 10 mg/kg/day dose was at the lower end of the parenteral dosing range described for mice (Zhang et al., (2011) Drug Meta. Dispos. 39: 15-21). For checkpoint blockade, mice received anti-CTLA-4 (clone 9D9, BioXcell) plus a cocktail of antibodies against the PD-1 pathway: anti-PD-L2, clone TY25 (Yamazaki et al., (2002) J. Immunol. 169: 5538-5545); anti-PD-1, clone J43 (Agata et al., (1996) Int. Immunol. 8: 765-772); and anti-PD-L1, clone MIH7 (Tsushima et al., (2003) Eur. J. Immunol. 33: 2773-2782). A cocktail was used in order to block the PD-1 pathway as completely as possible and thus minimize any peculiarities of a single blocking antibody.

Turning to `COc1ccc(C2=NC(c3ccc(Cl)cc3)C(c3ccc(Cl)cc3)N2C(=O)N2CCNC(=O)C2)c(OC(C)C)c1` (single isomer, unassigned; (-)) [nutlin-3a, (−)-4-(4,5-Bis(4-chlorophenyl)-2-(2-isopropoxy-4-methoxyphenyl)-4,5-dihydro-1H-imidazole-1-carbonyl)piperazin-2-one], the “Ly6C+/CD103+ dendritic cells in tumors” value is listed as “sustained expression”. Besides, the “Ly6C+/CD103+ dendritic cells in tumors” value (listed as nutlin) was “maintained long-term expression”. The anti-tumor effect entry (nutlin-3a added to one dose of oxaliplatin, FIG. 8C) is “markedly prolonged the anti-tumor effect; also recorded: significantly increased the intensity and duration of the anti-tumor effect”. The IL-12 production result (nutlin-3a added to oxaliplatin) is recorded as “enhanced IL-12 production”.

These data come from patent publication US20180008688A1, “METHOD AND COMPOSITIONS FOR ENHANCING IMMUNOTHERAPEUTIC TREATMENT OF A CANCER” (Augusta University Research Institute, Inc., priority 2016, published 2018).
